Experimental data: PubChem BioAssay AID1918940 (Molecular Pharmacology Branch, DTP, NCI, 2023)
Values joined by “and” are separate entries in the source; they are usually repeats but may differ in a detail not shown here. Equal entries are not always repeated.

Test system: NCI-H211 complex spheroid viability
Test: Anticancer human tumor NCI-H211 cell line growth inhibition [LSD1];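 further: luminescent viability read after seven days of drug exposure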;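 on viability, T/C: 100% = DMSO vehicle control viability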
Conditions: for viability, T/C: stronger effect = lower value
In short: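 Complex spheroids of tumor cells with HUVEC and human MSCs, exposed to iadademstat combined with other agents. Each agent tested in half-log steps from near clinical Cmax (else 10 microM top), DMSO ≤0.25%.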

[1] = curve of first compound, second compound 0.1 µM
[2] = curve of first compound, second compound 0.316 µM
[3] = curve of first compound, second compound 1 µM
[4] = curve of first compound, second compound 3.16 µM
[5] = curve of first compound, second compound 10 µM
[6] = second compound 0.1 µM, first compound 0.0316 µM
[7] = second compound 0.1 µM, first compound 0.1 µM
[8] = second compound 0.1 µM, first compound 0.316 µM
[9] = second compound 0.1 µM, first compound 1 µM
[10] = second compound 0.1 µM, first compound 3.16 µM
[11] = second compound 0.1 µM, first compound 10 µM
[12] = second compound 0.316 µM, first compound 0.0316 µM
[13] = second compound 0.316 µM, first compound 0.1 µM
[14] = second compound 0.316 µM, first compound 0.316 µM
[15] = second compound 0.316 µM, first compound 1 µM
[16] = second compound 0.316 µM, first compound 3.16 µM
[17] = second compound 0.316 µM, first compound 10 µM
[18] = second compound 1 µM, first compound 0.0316 µM
[19] = second compound 1 µM, first compound 0.1 µM
[20] = second compound 1 µM, first compound 0.316 µM
[21] = second compound 1 µM, first compound 1 µM
[22] = second compound 1 µM, first compound 3.16 µM
[23] = second compound 1 µM, first compound 10 µM
[24] = second compound 3.16 µM, first compound 0.0316 µM
[25] = second compound 3.16 µM, first compound 0.1 µM
[26] = second compound 3.16 µM, first compound 0.316 µM
[27] = second compound 3.16 µM, first compound 1 µM
[28] = second compound 3.16 µM, first compound 3.16 µM
[29] = second compound 3.16 µM, first compound 10 µM
[30] = second compound 10 µM, first compound 0.0316 µM
[31] = second compound 10 µM, first compound 0.1 µM
[32] = second compound 10 µM, first compound 0.316 µM
[33] = second compound 10 µM, first compound 1 µM
[34] = second compound 10 µM, first compound 3.16 µM
[35] = second compound 10 µM, first compound 10 µM

CCN(c1cc(-c2ccc(CN3CCOCC3)cc2)cc(C(=O)NCc2c(C)cc(C)[nH]c2=O)c1C)C1CCOCC1 + NC1CC1c1ccc(-c2cccc(O)c2)cc1
IC50 [1]: 205 nM | IC50 [2]: 69.4 nM | IC50 [3]: 114 nM | IC50 [4]: 127 nM | IC50 [5]: 139 nM | viability, T/C (second compound 0.1 µM, first compound 0.00949 µM): 74.4% | viability, T/C (second compound 0.1 µM, first compound 0.03 µM): 62.2% | viability, T/C (second compound 0.1 µM, first compound 0.0949 µM): 61.3% | viability, T/C (second compound 0.1 µM, first compound 0.3 µM): 43.7% | viability, T/C (second compound 0.1 µM, first compound 0.949 µM): 41% | viability, T/C (second compound 0.1 µM, first compound 3 µM): 40.9% | viability, T/C (second compound 0.316 µM, first compound 0.00949 µM): 84% | viability, T/C (second compound 0.316 µM, first compound 0.03 µM): 67.3% | viability, T/C (second compound 0.316 µM, first compound 0.0949 µM): 42.7% | viability, T/C (second compound 0.316 µM, first compound 0.3 µM): 48.8% | viability, T/C (second compound 0.316 µM, first compound 0.949 µM): 46.5% | viability, T/C (second compound 0.316 µM, first compound 3 µM): 36.3% | viability, T/C (second compound 1 µM, first compound 0.00949 µM): 83.4% | viability, T/C (second compound 1 µM, first compound 0.03 µM): 48.5% | viability, T/C (second compound 1 µM, first compound 0.0949 µM): 65.8% | viability, T/C (second compound 1 µM, first compound 0.3 µM): 38.1% | viability, T/C (second compound 1 µM, first compound 0.949 µM): 38.4% | viability, T/C (second compound 1 µM, first compound 3 µM): 30.3% | viability, T/C (second compound 3.16 µM, first compound 0.00949 µM): 79.3% | viability, T/C (second compound 3.16 µM, first compound 0.03 µM): 58.7% | viability, T/C (second compound 3.16 µM, first compound 0.0949 µM): 50.5% | viability, T/C (second compound 3.16 µM, first compound 0.3 µM): 46.3% | viability, T/C (second compound 3.16 µM, first compound 0.949 µM): 38.8% | viability, T/C (second compound 3.16 µM, first compound 3 µM): 27.4% | viability, T/C (second compound 10 µM, first compound 0.00949 µM): 70.3% | viability, T/C (second compound 10 µM, first compound 0.03 µM): 58.6% | viability, T/C (second compound 10 µM, first compound 0.0949 µM): 46.6% | viability, T/C (second compound 10 µM, first compound 0.3 µM): 51.7% | viability, T/C (second compound 10 µM, first compound 0.949 µM): 40.8% | viability, T/C (second compound 10 µM, first compound 3 µM): 32.1%

COc1ccc([C@@H](O)c2cc(-c3ncnc4cc(N5CCOCC5)ccc34)c(F)cc2Cl)nn1 + NC1CC1c1ccc(-c2cccc(O)c2)cc1
IC50 [1]: 4470 nM | IC50 [2]: 4050 nM | IC50 [3]: 3570 nM | IC50 [4]: 2490 nM | IC50 [5]: < 31.6 nM | viability, T/C [6]: 62% | viability, T/C [7]: 63.6% | viability, T/C [8]: 75% | viability, T/C [9]: 89.8% | viability, T/C [10]: 65.8% | viability, T/C [11]: 13.6% | viability, T/C [12]: 59.7% | viability, T/C [13]: 52.7% | viability, T/C [14]: 62.2% | viability, T/C [15]: 73.5% | viability, T/C [16]: 59.9% | viability, T/C [17]: 12.2% | viability, T/C [18]: 67.3% | viability, T/C [19]: 67% | viability, T/C [20]: 72.2% | viability, T/C [21]: 76.8% | viability, T/C [22]: 54.8% | viability, T/C [23]: 9.71% | viability, T/C [24]: 54.5% | viability, T/C [25]: 53.1% | viability, T/C [26]: 59% | viability, T/C [27]: 60.4% | viability, T/C [28]: 48.2% | viability, T/C [29]: 8.23% | viability, T/C [30]: 51.2% | viability, T/C [31]: 38.8% | viability, T/C [32]: 51.6% | viability, T/C [33]: 48% | viability, T/C [34]: 36.7% | viability, T/C [35]: 3.23%

NC1CCC(NC2CC2c2ccccc2)CC1 (centres undefined)
viability, T/C (compound 0.316 µM): 74.9% [middle of 4 runs] | viability, T/C (compound 10 µM): 36.1% [middle of 23 runs]

CC1(C)CCC(CN2CCN(c3ccc(C(=O)NS(=O)(=O)c4ccc(NCC5CCOCC5)c([N+](=O)[O-])c4)c(Oc4cnc5[nH]ccc5c4)c3)CC2)=C(c2ccc(Cl)cc2)C1 + NC1CC1c1ccc(-c2cccc(O)c2)cc1
IC50 [1]: < 31.6 nM | IC50 [2]: < 31.6 nM | IC50 [3]: < 31.6 nM | IC50 [4]: < 31.6 nM | IC50 [5]: < 31.6 nM | viability, T/C [6]: 43.8% | viability, T/C [7]: 38.7% | viability, T/C [8]: 35% | viability, T/C [9]: 53.4% | viability, T/C [10]: 100% | viability, T/C [11]: 52.7% | viability, T/C [12]: 36.8% | viability, T/C [13]: 37.9% | viability, T/C [14]: 37.2% | viability, T/C [15]: 53.2% | viability, T/C [16]: 100% | viability, T/C [17]: 65.1% | viability, T/C [18]: 27.5% | viability, T/C [19]: 47.8% | viability, T/C [20]: 26.1% | viability, T/C [21]: 44.5% | viability, T/C [22]: 90.8% | viability, T/C [23]: 55% | viability, T/C [24]: 32.1% | viability, T/C [25]: 28.1% | viability, T/C [26]: 29.8% | viability, T/C [27]: 30.8% | viability, T/C [28]: 58.9% | viability, T/C [29]: 46.2% | viability, T/C [30]: 32.7% | viability, T/C [31]: 26.2% | viability, T/C [32]: 21.2% | viability, T/C [33]: 28.2% | viability, T/C [34]: 30.5% | viability, T/C [35]: 21%

CCN(c1cc(-c2ccc(CN3CCOCC3)cc2)cc(C(=O)NCc2c(C)cc(C)[nH]c2=O)c1C)C1CCOCC1
viability, T/C (compound 0.00949 µM): 122% and 86.1% | viability, T/C (compound 0.03 µM): 108% and 75.3% | viability, T/C (compound 0.0949 µM): 100% and 68.3% | viability, T/C (compound 0.3 µM): 97.3% and 54.6% | viability, T/C (compound 0.949 µM): 96.4% and 52.2% | viability, T/C (compound 3 µM): 93.8% and 47.7% | IC50 (curve of compound): > 3000 nM and 1390 nM

CC1COCCN1c1cc(C2(S(C)(=N)=O)CC2)nc(-c2ccnc3[nH]ccc23)n1 (centres undefined) + NC1CC1c1ccc(-c2cccc(O)c2)cc1
IC50 [1]: 258 nM | IC50 [2]: 264 nM | IC50 [3]: 381 nM | IC50 [4]: 317 nM | IC50 [5]: 115 nM | viability, T/C [6]: 89.3% | viability, T/C [7]: 68.7% | viability, T/C [8]: 48.5% | viability, T/C [9]: 19.1% | viability, T/C [10]: 4.67% | viability, T/C [11]: 2.73% | viability, T/C [12]: 85.4% | viability, T/C [13]: 72.9% | viability, T/C [14]: 46.9% | viability, T/C [15]: 13.5% | viability, T/C [16]: 5.02% | viability, T/C [17]: 2.53% | viability, T/C [18]: 74.2% | viability, T/C [19]: 64.3% | viability, T/C [20]: 57.5% | viability, T/C [21]: 15% | viability, T/C [22]: 5.48% | viability, T/C [23]: 3.11% | viability, T/C [24]: 69.6% | viability, T/C [25]: 73.2% | viability, T/C [26]: 48.8% | viability, T/C [27]: 16.3% | viability, T/C [28]: 5.24% | viability, T/C [29]: 3% | viability, T/C [30]: 65.7% | viability, T/C [31]: 51.6% | viability, T/C [32]: 33.1% | viability, T/C [33]: 14.5% | viability, T/C [34]: 5.1% | viability, T/C [35]: 3.28%
